Structures are written as SMILES. Bounds are passed on as bounds.

POD vs vehicle data for five compounds are collected here from the supplement of paper PMC11368000.

Conditions in all cases: exposure time: 90 min
In test [1] the test system is 1083 (donor line of iPSC-derived cardiomyocytes). Briefly: POD (EC95) for loss of peak frequency (asystole) vs vehicle; higher = less potent (higher point of departure). The procedure:
(§1)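 Human iPSC-derived cardiomyocytes from 16 donors were exposed for 90 min at 37 °C to each PFAS at 0.1, 1, 10 and 100 µM in 0.5% DMSO, 384-well plates. Kinetic Ca2+ flux (FLIPR) and Hoechst nuclei counts were normalised to vehicle wells and fitted with a hierarchical Bayesian Hill model to give donor-specific PODs: EC05 for beat-rate increase or decrease and for decay-to-rise ratio increase (QT proxy), EC95 for peak-frequency loss (asystole), EC10 for total cell number loss. 0.03 µM is the lower bound.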

In test [2] the test system is 1118 (donor line of iPSC-derived cardiomyocytes). Described as above. The procedure: as §1
Test [3] deals with 11235 (donor line of iPSC-derived cardiomyocytes). The test is described as above. On the procedure: as §1
Test [4] has as its system 1309 (donor line of iPSC-derived cardiomyocytes). The test is described as above. The procedure: as §1
The test system of test [5] is 1368 (donor line of iPSC-derived cardiomyocytes). The test is described as above. On the procedure:
as §1

Test [6] deals with 1392 (donor line of iPSC-derived cardiomyocytes). The test is described as above. On the procedure:
as §1

Test [7] deals with 1434 (donor line of iPSC-derived cardiomyocytes). The test is described as above. On the procedure: as §1
Test [8] deals with 1516 (donor line of iPSC-derived cardiomyocytes). The description is as above. On the procedure:
as §1

For test [9], the system named is 1518 (donor line of iPSC-derived cardiomyocytes). Described as above. The procedure:
as §1

The subject of test [10] is 1531 (donor line of iPSC-derived cardiomyocytes). The description is as above. On the procedure:
as §1

Test [11] has as its system 1535 (donor line of iPSC-derived cardiomyocytes). The test is described as above. The procedure:
as §1

The subject of test [12] is 1565 (donor line of iPSC-derived cardiomyocytes). The test is described as above. The procedure:
as §1

In test [13] the test system is 20032 (donor line of iPSC-derived cardiomyocytes). The test is described as above. The procedure: as §1
The subject of test [14] is 20084 (donor line of iPSC-derived cardiomyocytes). Described as above. On the procedure:
as §1

In test [15] the test system is 30145 (donor line of iPSC-derived cardiomyocytes). The description is as above. The procedure: as §1
The subject of test [16] is 30171 (donor line of iPSC-derived cardiomyocytes). Described as above. On the procedure:
as §1

The subject of test [17] is 1518. Briefly: POD (EC05) for increase in beat frequency (positive chronotrope) vs vehicle; higher = less potent (higher point of departure). Put shortly: (§2)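 Human iPSC-derived cardiomyocytes from 16 donors were cultured 14 days in gelatin-coated 384-well plates and loaded 2 h with fluorescent Ca2+ dye. They were then exposed for 90 min at 37 °C to 0.1, 1, 10 and 100 µM (final, 0.5% DMSO). Ca2+ flux was recorded on a FLIPR Tetra (8 frames/s, 100 s) before and after exposure. Donor-specific points of departure came from hierarchical Bayesian Hill fits to vehicle-normalised beat frequency, decay-to-rise ratio or peak frequency. Thresholds were 5% change, or 95% loss for peak frequency.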

Test [18] relates to 1531. The test is described as above. Put shortly: as §2
For test [19], the system named is 1535. The description is as above. In a few lines:
as §2

The subject of test [20] is 20084. Described as above. Put shortly: as §2

`O=S(=O)(O)C(F)(F)C(F)(F)C(F)(F)C(F)(F)F` [Perfluorobutanesulfonic_acid]: the POD vs vehicle in [1], in test [2], in test [3], in test [4], in [5] and in test [6] was more than 100 µM in each case. The POD vs vehicle in [7], in test [8], in [9], in test [10], in [11] and in [12] was more than 100 µM throughout. Moreover, the POD vs vehicle in test [13], in test [14], in test [15], in test [16], in test [17] and in test [18] was more than 100 µM throughout. The POD vs vehicle in test [19] and in test [20] was more than 100 µM throughout.
Regarding `O=C(O)C(F)(F)C(F)(F)C(F)(F)F` [Perfluorobutanoic_acid], the POD vs vehicle in test [1], in test [2], in test [3], in [4], in test [5] and in test [6] was more than 100 µM each time. In addition, the POD vs vehicle in [7], in test [8], in [9], in test [10], in [11] and in test [12] was more than 100 µM each time. Besides, the POD vs vehicle in [13], in test [14], in [15], in [16], in test [17] and in test [18] was more than 100 µM throughout. Besides, the POD vs vehicle in test [19] and in test [20] was more than 100 µM in each case.
Take `O=C(O)C(F)(F)C(F)(F)C(F)(F)C(F)(F)C(F)(F)C(F)(F)C(F)(F)C(F)(F)C(F)(F)F` [Perfluorodecanoic_acid]: the POD vs vehicle in [1] is 74.6 µM; in [2] it was 9.5 µM; in [3], 67.4 µM; in test [4] it was more than 100 µM; in [5], more than 100 µM; in test [6], more than 100 µM. The POD vs vehicle in [7] is 67.4 µM; in test [8] it was 68.8 µM; in test [9], more than 100 µM; in test [10], more than 100 µM; in test [11], more than 100 µM; in [12], more than 100 µM. Moreover, the POD vs vehicle in test [13] is more than 100 µM; in [14], more than 100 µM; in test [15], more than 100 µM; in [16] it was 36.5 µM; in [17], more than 100 µM; in test [18] it was more than 100 µM. The POD vs vehicle in [19] and in [20] was more than 100 µM each time.
With `O=C(O)C(F)(F)C(F)(F)C(F)(F)C(F)(F)C(F)(F)C(F)(F)F` [Perfluoroheptanoic_acid], the POD vs vehicle in test [1], in test [2], in test [3], in test [4], in test [5] and in test [6] was more than 100 µM throughout. In addition, the POD vs vehicle in [7], in test [8], in test [9], in test [10], in test [11] and in [12] was more than 100 µM in each case. Besides, the POD vs vehicle in test [13], in [14], in test [15], in test [16], in [17] and in [18] was more than 100 µM throughout. The POD vs vehicle in [19] and in test [20] was more than 100 µM in each case.
Turning to `NS(=O)(=O)C(F)(F)C(F)(F)C(F)(F)C(F)(F)C(F)(F)C(F)(F)F` [Perfluorohexanesulfonamide], the POD vs vehicle in test [1] is more than 100 µM; in [2], 7.84 µM; in [3], 6.45 µM; in [4], 90.8 µM; in test [5] it was more than 100 µM; in test [6], more than 100 µM. Also, the POD vs vehicle in test [7] was 58.4 µM; in [8] it was 77.8 µM; in test [9] it was more than 100 µM; in test [10], 40.8 µM; in [11] it was 71.2 µM; in [12], more than 100 µM. Besides, the POD vs vehicle in test [13] was 96 µM; in [14], more than 100 µM; in test [15], more than 100 µM; in [16], 49.3 µM; in [17] it was more than 100 µM; in test [18] it was more than 100 µM. Besides, the POD vs vehicle in test [19] and in test [20] was more than 100 µM each time.
